Source: paper PMC7734336, “Riproximin Exhibits Diversity in Sugar Binding, and Modulates some Metastasis-Related Proteins with Lectin like Properties in Pancreatic Ductal Adenocarcinoma” (Frontiers in Pharmacology, 2020)

Assays:
[1] = molecular target: T1, Riproximin (Rpx) (Ximenia americana, UniProt Q2PA54); assay: 1H NMR line broadening and waterLOGSY; assay type: binding; settings: 298 K; pyranose anomers observed separately in one sample
[2] = molecular target: T1, Riproximin (Rpx); assay: waterLOGSY NMR; assay type: binding; settings: 298 K; pyranose anomers observed separately in one sample

T1 sequence (Q2PA54 53-325 limits assumed): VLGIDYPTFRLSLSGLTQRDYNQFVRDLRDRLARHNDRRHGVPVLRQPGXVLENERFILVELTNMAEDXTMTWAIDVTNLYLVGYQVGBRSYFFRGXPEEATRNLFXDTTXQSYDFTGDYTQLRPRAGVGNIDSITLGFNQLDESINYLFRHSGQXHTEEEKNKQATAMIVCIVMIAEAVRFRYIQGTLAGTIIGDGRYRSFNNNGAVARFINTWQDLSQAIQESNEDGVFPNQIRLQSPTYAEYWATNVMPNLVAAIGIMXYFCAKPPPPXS
T1 sequence (Q2PA54 334-601 limits assumed): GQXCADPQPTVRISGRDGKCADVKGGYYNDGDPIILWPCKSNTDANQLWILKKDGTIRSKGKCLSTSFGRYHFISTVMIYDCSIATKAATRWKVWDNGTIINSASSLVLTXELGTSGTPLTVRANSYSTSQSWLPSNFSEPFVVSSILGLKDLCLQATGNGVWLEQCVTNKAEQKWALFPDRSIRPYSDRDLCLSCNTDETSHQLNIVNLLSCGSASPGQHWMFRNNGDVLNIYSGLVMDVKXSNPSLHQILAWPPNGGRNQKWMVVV

SMILES: C[C@@H]1OC(O)[C@@H](O)[C@H](O)[C@@H]1O (mixture of isomers) [L-fucose]
- 1H NMR line broadening and waterLOGSY [1]: The methyl doublet signals of L-fucose show clear line broadening due to binding to Rpx

SMILES: OC[C@H]1OC(O)[C@H](O)[C@@H](O)[C@H]1O (mixture of isomers) [D-galactose]
- 1H NMR line broadening and waterLOGSY [1]: The affinities of both D-galactose and L-fucose for Rpx were moderate as evident by clear

SMILES: C[C@@H]1OC(O)[C@H](O)[C@H](O)[C@H]1O (mixture of isomers) [L-rhamnose]
- waterLOGSY NMR [2]: water-LOGSY spectrum confirmed nevertheless the very weak binding of both, the α- and β-anomers of l-rhamnose
